Results reported in US7323260B2, “Lubricant, recording medium and carboxylic acid compound” (Sony Corporation, priority 2003, dated 2008).

Experiment: Evaluation of solubility in solvent
Assay type: physicochemical
Method: Solubility of lubricants which were used in Examples 1 to 11 and Comparative Example 3 in each of ethanol, acetone and toluene was evaluated. Evaluation results of solubility of the lubricants are shown in Table 10 by evaluation criteria as defined as follows: […]
Solubility of lubricants which were used in Examples 21 to 37 in each of ethanol, acetone and toluene was evaluated. Evaluation results of solubility of lubricants are shown in Table 19 by evaluation criteria as defined as follows: […]

solubility in a hydrocarbon type solvent (in words): hardly dissolved
Substance: C18H37CH(COOC12H25)(CH2)2COOCH2CF2(OCF2)p(OCF(CF3)CF2)qOCF3 [Comparative Example 3]
